Experimental data as given in patent publication US20100022656A1, “OPTICALLY ACTIVE PHENYLETHANOL AMINES AND PREPARING METHOD THEREOF” (SHENYANG PHARMACEUTICAL UNIVERSITY, priority 2006, published 2010).

Biological target: T1, β2-receptor (Cavia porcellus, UniProt Q8K4Z4)
T1 construct: Trachea was removed and cut from thyroid cartilage to trachea crotch; from tissue; host or cells: guinea pig (Hartley) isolated trachea strips
Assay: Antagonistic effect on isolated trachea strip constriction induced by histamine (study of effect on β2-receptor)
Assay type: cell-based
Details: isolated guinea pig (Hartley) trachea strips contracted with histamine to 50% of maximum; tested compounds formulated as 10^−6 M solution; 37° C.
Excerpt: Study of the Effect of Compounds of the Invention on β2-Receptor
Sample: All tested compounds were formulated into solution of 10^−6 M.
The antagonistic effects of the compounds of the present invention on the trachea constriction induced by histamine.
Guinea pigs were sacrificed and cut through the skin and subcutaneous tissue on ventral side of neck. Trachea was removed and cut from thyroid cartilage to trachea crotch, then placed into an ice cooled oxygenated Kebs-Hensleits solution. The connective tissues around the trachea were cut off. The trachea was held by a nipper on one end and cut into trachea strips (2 cm×3 mm) in helix. The samples were then put into a bath containing 20 ml of Kebs-Hensleits solution. The lower end of the trachea strips was fastened to a vent hook and the upper end was connected to a strain gauge transducer, thus the tension change was measured by the recorder. The bath was controlled at 37° C. and oxygen gas was continuously supplied. The preload of the samples was 2 g. The samples were equilibrated in the nutrient solution for 1 hour and the solution was refreshed every 20 min.
When the tension of the samples reached a stable value, various concentrations (1×10^−10˜3×10^−4 mol·L^−1) of histamine were added to the bath. A dose-effect curve was established to determine the concentration of histamine when 50% of the maximum contraction was reached. After refreshing the solution and balancing the samples for 60 min, an amount of histamine was added to the bath. When the tension of trachea strips reached 50% of the maximum contraction, the tested compounds were added to bath, and the antagonistic effect (represented as relaxing rate) of the compounds on the isolated trachea constriction induced by histamine was calculated as below:
Relaxing rate (%)=[(Contraction intensity after histamine addition−Contraction intensity after tested compounds addition)/[…]]×100%

T1 sequence (Q8K4Z4 whole entry): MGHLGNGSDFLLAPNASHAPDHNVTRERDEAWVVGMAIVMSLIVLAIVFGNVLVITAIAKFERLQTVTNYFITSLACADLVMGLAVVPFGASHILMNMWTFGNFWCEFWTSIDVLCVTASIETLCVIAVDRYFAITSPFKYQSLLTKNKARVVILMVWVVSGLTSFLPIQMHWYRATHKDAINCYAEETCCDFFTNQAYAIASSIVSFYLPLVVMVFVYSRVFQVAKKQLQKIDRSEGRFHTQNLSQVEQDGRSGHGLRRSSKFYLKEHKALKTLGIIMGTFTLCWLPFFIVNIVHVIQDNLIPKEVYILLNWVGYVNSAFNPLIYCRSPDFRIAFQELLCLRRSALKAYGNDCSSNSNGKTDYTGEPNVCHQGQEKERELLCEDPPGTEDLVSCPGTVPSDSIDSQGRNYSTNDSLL

SMILES	Relaxing rate (%)
CC(C)(C)NC(CO)c1cc(Cl)c(N)c(C#N)c1.Cl (stereo not drawn) [drawing 6]	100.0%
CC(C)(C)NC(CO)c1cc(Cl)c(N)c(C#N)c1.Cl (stereo not drawn) [drawing 7]	78.1%
CC(C)(C)NC(CO)c1cc(Cl)c(N)c(C#N)c1.Cl (stereo not drawn) [drawing 8]	112.1%

The remaining lines, values ahead:

Relaxing rate (%)	SMILES
70.2%	CC(C)(C)NC(CO)c1ccc(N)c(C(F)(F)F)c1.Cl (stereo not drawn) [drawing 12]
55.3%	CC(C)(C)NC(CO)c1ccc(N)c(C(F)(F)F)c1.Cl (stereo not drawn) [drawing 13]
88.3%	CC(C)(C)NC(CO)c1ccc(N)c(C(F)(F)F)c1.Cl (stereo not drawn) [drawing 14]
